Source: patent US20160206580A1, “[…] LIPOSOME FORMULATIONS OF TRANEXAMIC ACID” (Pacira Pharmaceuticals, Inc., priority 2015, published 2016)
Read-outs that look alike come from different tables or passages of the source.

How the values were obtained:
[1] = Toxicokinetics of TXA in plasma after subcutaneous injection; type: in vivo, beagle dog
Procedure: (§1) The objectives of this study were to determine the potential toxicity of TXA formulations, when given by subcutaneous injection to the beagle dog and to evaluate the potential reversibility of any findings, in comparison to the Reference Control Item, Tranexamic acid. In addition, the toxicokinetic profiles were determined.
(§2) The Test, Reference Control and Reference Items were administered to the appropriate animals via subcutaneous injection into the scapular and mid-dorsal areas on Days 1, 4, 7, and 10. The dose volume for each animal was based on the most recent body weight measurement. The volume for each dose was administered using a syringe/needle over one injection. Injection sites were rotated between two delimited sites (and the same site for all animals on a given day). Dosing area was shaved as needed and injection sites were marked with a pen (target area of 5 cm×5 cm). The first dosing site was in the mid-scapular region of the back and the second dosing site was caudal to the first site in the mid-dorsum region.
Blood was collected from the jugular vein (or cephalic vein) from all animals in lithium heparin-containing tubes.
Samples were mixed gently and placed on crushed wet ice until centrifugation, which was carried out as soon as practical. The samples were centrifuged for 10 minutes in a refrigerated centrifuge (set to maintain the temperature at 4° C.) at 2700 rpm. The resultant plasma was separated, transferred to uniquely labeled clear polypropylene tubes, and frozen immediately over dry ice and transferred to a freezer set to maintain −80° C.
Plasma samples were analyzed for concentration of the tranexamic acid using a validated analytical procedure.
Toxicokinetic parameters were generated from the test item (tranexamic acid) individual concentrations in plasma from Days 1 and 10, whenever practical.

[2] = Percent free (unencapsulated) TXA in the formulation; type: physicochemical; settings: formulations dosed in the rat PK study (Table 2)
From the text: The present embodiments provide pharmaceutical formulations comprising multivesicular liposomes (MVLs) containing tranexamic acid (TXA) which minimize the side effects of TXA while maintaining or improving efficacy and lengthening the duration of the effect. The present embodiments also provide pharmaceutical formulations comprising TXA encapsulated in the MVLs and unencapsulated TXA. The term “unencapsulated” as used herein, means that the biologically active ingredient (e.g., tranexamic acid) is outside the MVL particles, for example, in the suspending solution. The unencapsulated TXA provides immediate efficacy of TXA while the use of TXA encapsulated MVLs formulations in the instant embodiments results in the release of TXA for an extended period. The processes of preparing the DEPO-TXAs and the methods of using the DEPO-TXA formulations for treating, ameliorating, or preventing blood loss are also disclosed herewith. […]
For the 40 mg/mL formulation, % PPV is about 50.0% and the assumed interstitial volume (mL) is about 20%, rendering about 62% free TXA outside of the multivesicular liposomes. […] During the first 12 h, the released TXA contributes to the initial TXA peak measured in the plasma. […]

[3] = test system: beagle dog; test: Evaluation of toxicity of subcutaneous administration; type: in vivo; settings: sc
Procedure: as §1
21 male and 21 female beagle dogs were used in this study. The animals were from 6 to 7 months old and weighed between 7.5 and 9.8 kg (males) and 6.0 and 8.2 kg (females) at initiation of dosing.
as §2
Blood was collected from the jugular vein. Urine was collected overnight from individually housed animals. […]

NC[C@H]1CC[C@H](C(=O)O)CC1 [TXA, tranexamic acid]
mean peak exposures (Cmax) higher for the free TXA group than DepoTXA ([1]; 120 mg/kg dose level, Day 1): 28% | peak TXA levels lower for the free TXA group than DepoTXA ([1]; 120 mg/kg dose level, Day 10, after fourth and final sc dose): 14% | administered TXA cleared after 12 hours (percent of total AUC) ([1]; beagle dog, sc, FIGS. 5A, 5B): 94% | time to exposure to nearly the full TXA dose ([1]; beagle dog, sc, FIGS. 6A, 6B): less than 24 hours | AUC(0-t) ([1]; beagle, dog, plasma, sc, 120 mg/kg, beagle dog, sc, 120 mg/kg/dose, Day 1, read-out: AUC0-72): 490 µg·h/mL | Cmax ([1]; beagle, dog, plasma, sc, 120 mg/kg, beagle dog, sc, 120 mg/kg/dose, Day 1, read-out: Cmax): 140 µg/mL | Tmax ([1]; beagle, dog, plasma, sc, 120 mg/kg, beagle dog, sc, 120 mg/kg/dose, Day 1, read-out: Tmax): 1.2 h | half-life ([1]; beagle, dog, plasma, sc, 120 mg/kg, beagle dog, sc, 120 mg/kg/dose, Day 1, read-out: t1/2 (converted)): 25.7 h | AUC(0-t) ([1]; beagle, dog, plasma, sc, 120 mg/kg, beagle dog, sc, 120 mg/kg/dose, Day 10, read-out: AUC0-72): 484 µg·h/mL | Cmax ([1]; beagle, dog, plasma, sc, 120 mg/kg, beagle dog, sc, 120 mg/kg/dose, Day 10, read-out: Cmax): 119 µg/mL | Tmax ([1]; beagle, dog, plasma, sc, 120 mg/kg, beagle dog, sc, 120 mg/kg/dose, Day 10, read-out: Tmax): 1.1 h | half-life ([1]; beagle, dog, plasma, sc, 120 mg/kg, beagle dog, sc, 120 mg/kg/dose, Day 10, read-out: t1/2 (converted)): 28.9 h | half-life ([1]; beagle, dog, plasma, sc, 120 mg/kg, mean±SD, sc, 120 mg/kg, Day 1, read-out: Mean terminal elimination half-life (t1/2elim) (converted)): 25.7 ± 2 h | half-life ([1]; beagle, dog, plasma, sc, 120 mg/kg, mean±SD, sc, 120 mg/kg, Day 10, read-out: Mean terminal elimination half-life (t1/2elim) (converted)): 28.9 ± 2.9 h | Cmax ([1]; both sexes, beagle, dog, plasma, sc, 120 mg/kg, genders combined mean, sc, 120 mg/kg, Day 10, read-out: mean peak levels (Cmax)): 119 ± 15.4 µg/mL | AUC(0-t) ([1]; both sexes, beagle, dog, plasma, sc, 120 mg/kg, mean±SD, n=10, genders combined, sc, 120 mg/kg, Day 1, read-out: AUC0-24): 475 ± 35.1 µg·h/mL | AUC(0-t) ([1]; both sexes, beagle, dog, plasma, sc, 120 mg/kg, mean±SD, n=10, genders combined, sc, 120 mg/kg, Day 1, read-out: AUC0-48): 485 ± 36.1 µg·h/mL | AUC(0-t) ([1]; both sexes, beagle, dog, plasma, sc, 120 mg/kg, mean±SD, n=10, genders combined, sc, 120 mg/kg, Day 1, read-out: AUC0-72): 490 ± 36.5 µg·h/mL | Tmax ([1]; both sexes, beagle, dog, plasma, sc, 120 mg/kg, mean±SD, n=10, genders combined, sc, 120 mg/kg, Day 1, read-out: Tmax (plasma concentrations of TXA peaked)): 1.2 ± 0.42 h | Cmax ([1]; both sexes, beagle, dog, plasma, sc, 120 mg/kg, mean±SD, n=10, genders combined, sc, 120 mg/kg, Day 1, read-out: mean peak levels (Cmax)): 140 ± 19.2 µg/mL | AUC(0-t) ([1]; both sexes, beagle, dog, plasma, sc, 120 mg/kg, mean±SD, n=10, genders combined, sc, 120 mg/kg, Day 10, read-out: AUC0-24): 468 ± 42.5 µg·h/mL | AUC(0-t) ([1]; both sexes, beagle, dog, plasma, sc, 120 mg/kg, mean±SD, n=10, genders combined, sc, 120 mg/kg, Day 10, read-out: AUC0-48): 479 ± 44.2 µg·h/mL | AUC(0-t) ([1]; both sexes, beagle, dog, plasma, sc, 120 mg/kg, mean±SD, n=10, genders combined, sc, 120 mg/kg, Day 10, read-out: AUC0-72): 484 ± 45.2 µg·h/mL | Tmax ([1]; both sexes, beagle, dog, plasma, sc, 120 mg/kg, mean±SD, n=10, genders combined, sc, 120 mg/kg, Day 10, read-out: Tmax (mean peak concentrations reached)): 1.1 ± 0.32 h | AUC(0-inf) ([1]; both sexes, beagle, dog, plasma, mean±SD, n=10, genders combined, sc, 120 mg/kg, Day 1): 495 ± 36.8 µg·h/mL | Percent free TXA [2]: 100% | clinical signs following dosing [3]: at a similar incidence and severity
